Results on 14 molecules are retold here after patent US11472805B2, “Tricyclic compounds and their use as phosphodiesterase inhibitors” (Pfizer Inc., priority 2015, dated 2022).

What all share (type): biochemical
The target in one assay is Human PDE4A3 (Homo sapiens (Human), UniProt P27815). Description: PDE4A3 Scintillation Proximity Assay (SPA), inhibition of enzyme activity. To be noted: read-out: Human PDE4A FL. Here is the method:
(§1) The PDE4A, PDE4B, PDE4C and PDE4D binding affinity for the compounds of the present invention was determined utilizing the following biological assay(s):
(§2) The recombinant Bacmid was isolated and used to transfect insect cells to generate a viral stock. To generate cell paste for purification, insect cells were infected with the virus stock and cells were harvested 72 hours after infection. Insect cell paste was lysed and after centrifugation, the supernatant was batch bound to Ni-NTA agarose (GE Healthcare) and eluted with 250 mM imidazole. This eluate was diluted with FLAG buffer (50 mM Tris HCL pH 7.5, 100 mM NaCl, 5% Glycerol, 1 mM TCEP with protease inhibitors) and batch bound to ant-FLAG M2 agarose (Sigma) overnight at 4° C. The agarose was packed into a column, washed with buffer and eluted with buffer containing elute using 250 ug/ml Flag-peptide. Fractions were analyzed using SDS-PAGE Coomassie blue staining and pooled based on purity. Pooled fractions were chromatographed on a S200 120 ml column (GE Healthcare) in 50 mM Tris HCL pH 7.5, 150 mM NaCl, 10% Glycerol, 2 mM TCEP with protease inhibitors. PDE4A3 fractions were analyzed by SDS-PAGE Coomassie blue staining, pooled based on purity, dialyzed against 50 mM Tris HCL pH 7.5, 100 mM NaCl, 20% Glycerol, 2 mM TCEP, frozen and stored at −80° C.
(§3) The PDE4A3, PDE4B1, PDE4C1 and PDE4D3 assays use the Scintillation Proximity Assay (SPA) technology to measure the inhibition of human recombinant PDE4A1, PDE4B3, PDE4C1, and PDE4D3 enzyme activity by compounds in vitro. The PDE4A1, PDE4B3, PDE4C1, and PDE4D3 assays are run in parallel using identical parameters, except for the concentration of enzyme ([…]). The assays are performed in a 384-well format with 50 uL assay buffer (50 mM TRIS pH7.5; 1.3 mM MgCl2; 0.01% Brij) containing enough PDE4A3, PDE4B1, PDE4C1, and PDE4D to convert ˜20% of substrate (1 μM cAMP consisting of 20 nM 3H-cAMP+[…] cold cAMP) and a range of inhibitors. Reactions are incubated for 30 min at 25° C. The addition of 20 uL of 8 mg/ml yitrium silicate SPA beads (Perkin Elmer) stops the reaction. The plates are sealed (TopSeal, Perkin Elmer) and the beads are allowed to settle for 8 hrs, after which they are read on the Trilux Microbeta overnight.
A general note: SPA uses beads or plates that emit light when radiolabelled molecules are held near them.

The target in another assay is Human PDE4B1 (Homo sapiens (Human), UniProt Q07343, S133E/S654A/S659A/S661A). Description: PDE4B1 Scintillation Proximity Assay (SPA), inhibition of enzyme activity. To be noted: read-out: Human PDE4B FL. On the procedure: as §1
The recombinant Bacmid was isolated and used to transfect insect cells to generate a viral stock. To generate cell paste for purification, insect cells were infected with the virus stock and cells were harvested 72 hours after infection as described in Seeger, T. F. et al., Brain Research 985 (2003) 113-126. Insect cell paste was lysed and after centrifugation, the supernatant was chromatographed on Ni-NTA agarose (Qiagen) as described in Seeger, T. F. et al., Brain Research 985 (2003) 113-126. Ni-NTA agarose eluting fractions containing PDE4 were pooled, diluted with Q buffer A (20 mM Tris HCl pH 8, 5% glycerol, 1 mM TCEP) to reduce NaCl to ˜100 mM and loaded on a Source 15Q (GE Healthcare) column. After washing with Q buffer A/10% buffer B to baseline, PDE4D was eluted with a gradient from 10% to 60% of Buffer B (20 mM Tris HCl pH 8, 1 M NaCl, 5% glycerol, 1 mM TCEP). PDE4D fractions were analyzed by SDS-PAGE Coomassie blue staining, pooled based on purity, frozen and stored at −80° C.
as §3

For another assay, the target named is Human PDE4C1 (Homo sapiens (Human), UniProt Q08493). The assay is described as follows: PDE4C1 Scintillation Proximity Assay (SPA), inhibition of enzyme activity. To be noted: Table 9, geometric mean of 2-9 determinations unless otherwise indicated, read-out: Human PDE4C FL. Here is the method:
as §1
as §2, with “PDE4C1” for “PDE4A3”
as §3

A further assay concerns the target human PDE4D3 (Homo sapiens (Human), UniProt Q08499). The assay is described as follows: PDE4D3 Scintillation Proximity Assay (SPA), inhibition of enzyme activity. To be noted: read-out: Human PDE4D FL. On the procedure: as §1
A portion of the human PDE4D3 coding sequence (amino acids 50 to 672 from the sequence with accession number Q08499-2) was cloned into the baculovirus expression vector pFastBac (Invitrogen) engineered to include a C-terminal His6 affinity tag to aid in purification as described in Seeger, T. F. et al., Brain Research 985 (2003) 113-126. The recombinant Bacmid was isolated and used to transfect insect cells to generate a viral stock. To generate cell paste for purification, insect cells were infected and cells were harvested 72 hours after infection. Insect cell paste was lysed and after centrifugation, the supernatant was chromatographed on Ni-NTA agarose (Qiagen) as described in Seeger, T. F. et al., Brain Research 985 (2003) 113-126. Ni-NTA agarose eluting fractions containing PDE4 were pooled, diluted with Q Buffer A (50 mM Tris HCl pH 8, 4% glycerol, 100 mM NaCl, 1 mM TCEP, Protease inhibitors EDTA-free (Roche)) to reduce NaCl to ˜200 mM, and loaded on a Q Sepharose (GE Healthcare) column. After washing with Q buffer A to baseline, PDE4D was eluted with a gradient from 10% to 60% of Buffer B (50 mM Tris HCl pH 8, 1 M NaCl, 4% glycerol, 1 mM TCEP). PDE4D fractions were analyzed by SDS-PAGE Coomassie blue staining, pooled based on purity, frozen and stored at −80° C.
as §3

The mark [1] stands for this setting: Table 9, geometric mean of 2-9 determinations unless otherwise indicated.
Where [2] appears, read: Table 10, geometric mean of 2-9 determinations unless otherwise indicated.

Like-named read-outs stand apart in the source and are kept apart here.

Chain of Human PDE4A3 (P27815 other isoform, or with tags, fused parts or gaps): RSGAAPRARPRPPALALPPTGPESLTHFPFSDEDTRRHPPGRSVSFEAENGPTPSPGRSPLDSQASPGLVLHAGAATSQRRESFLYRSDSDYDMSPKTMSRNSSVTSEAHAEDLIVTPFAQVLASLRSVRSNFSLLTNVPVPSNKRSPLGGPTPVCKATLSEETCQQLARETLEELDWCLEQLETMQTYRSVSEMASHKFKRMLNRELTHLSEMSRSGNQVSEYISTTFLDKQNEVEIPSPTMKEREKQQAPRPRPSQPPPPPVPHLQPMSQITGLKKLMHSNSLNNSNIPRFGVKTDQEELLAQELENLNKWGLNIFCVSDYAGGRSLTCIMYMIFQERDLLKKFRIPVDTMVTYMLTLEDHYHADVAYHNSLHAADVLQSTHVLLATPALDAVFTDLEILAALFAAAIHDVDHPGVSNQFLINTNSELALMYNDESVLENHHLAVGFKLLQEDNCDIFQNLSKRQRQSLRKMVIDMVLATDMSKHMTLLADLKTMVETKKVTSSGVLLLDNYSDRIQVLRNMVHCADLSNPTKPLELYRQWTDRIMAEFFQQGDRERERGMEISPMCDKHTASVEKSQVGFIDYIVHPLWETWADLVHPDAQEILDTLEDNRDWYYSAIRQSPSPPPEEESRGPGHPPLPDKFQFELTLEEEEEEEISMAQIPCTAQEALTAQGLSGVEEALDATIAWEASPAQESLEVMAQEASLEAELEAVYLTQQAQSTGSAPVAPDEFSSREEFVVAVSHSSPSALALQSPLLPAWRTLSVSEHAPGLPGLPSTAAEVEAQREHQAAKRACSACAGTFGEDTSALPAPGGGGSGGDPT
Chain of human PDE4D3 (Q08499 186-808): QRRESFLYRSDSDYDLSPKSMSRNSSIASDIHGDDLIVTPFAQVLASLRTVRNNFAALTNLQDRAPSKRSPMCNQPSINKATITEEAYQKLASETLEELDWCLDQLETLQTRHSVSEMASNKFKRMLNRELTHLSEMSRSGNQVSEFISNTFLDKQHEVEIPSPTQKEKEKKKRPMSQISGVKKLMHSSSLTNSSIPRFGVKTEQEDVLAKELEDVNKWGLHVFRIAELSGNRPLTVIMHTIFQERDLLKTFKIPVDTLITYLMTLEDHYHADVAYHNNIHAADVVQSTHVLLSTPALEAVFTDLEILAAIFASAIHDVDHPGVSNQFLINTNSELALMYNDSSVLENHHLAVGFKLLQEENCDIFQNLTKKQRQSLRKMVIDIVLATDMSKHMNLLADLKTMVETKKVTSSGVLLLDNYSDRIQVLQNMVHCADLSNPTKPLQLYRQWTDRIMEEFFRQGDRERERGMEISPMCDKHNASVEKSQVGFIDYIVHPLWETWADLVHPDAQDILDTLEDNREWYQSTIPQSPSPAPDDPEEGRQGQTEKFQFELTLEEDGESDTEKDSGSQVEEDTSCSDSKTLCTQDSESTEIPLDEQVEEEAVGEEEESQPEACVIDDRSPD
Chain of Human PDE4C1 (Q08493 2-712): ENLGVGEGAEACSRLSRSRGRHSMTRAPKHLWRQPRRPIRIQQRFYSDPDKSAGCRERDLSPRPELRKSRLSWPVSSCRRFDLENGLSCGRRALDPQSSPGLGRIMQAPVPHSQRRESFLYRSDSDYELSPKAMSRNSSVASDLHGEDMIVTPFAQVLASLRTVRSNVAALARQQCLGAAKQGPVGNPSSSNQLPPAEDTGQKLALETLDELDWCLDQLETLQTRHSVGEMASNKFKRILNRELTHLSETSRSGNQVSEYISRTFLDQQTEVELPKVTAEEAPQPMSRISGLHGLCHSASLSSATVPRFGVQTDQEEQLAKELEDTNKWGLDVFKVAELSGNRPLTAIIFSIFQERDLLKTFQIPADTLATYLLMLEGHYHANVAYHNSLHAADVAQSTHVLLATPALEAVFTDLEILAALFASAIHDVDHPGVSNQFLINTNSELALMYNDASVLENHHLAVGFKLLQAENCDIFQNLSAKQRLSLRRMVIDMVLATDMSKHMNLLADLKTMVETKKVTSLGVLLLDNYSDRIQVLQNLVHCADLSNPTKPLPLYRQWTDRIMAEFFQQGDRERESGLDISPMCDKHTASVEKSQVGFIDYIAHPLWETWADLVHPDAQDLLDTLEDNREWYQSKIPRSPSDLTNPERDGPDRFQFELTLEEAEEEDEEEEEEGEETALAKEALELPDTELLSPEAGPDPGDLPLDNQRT
Chain of Human PDE4B1 (Q07343 122-736 S133E/S654A/S659A/S661A): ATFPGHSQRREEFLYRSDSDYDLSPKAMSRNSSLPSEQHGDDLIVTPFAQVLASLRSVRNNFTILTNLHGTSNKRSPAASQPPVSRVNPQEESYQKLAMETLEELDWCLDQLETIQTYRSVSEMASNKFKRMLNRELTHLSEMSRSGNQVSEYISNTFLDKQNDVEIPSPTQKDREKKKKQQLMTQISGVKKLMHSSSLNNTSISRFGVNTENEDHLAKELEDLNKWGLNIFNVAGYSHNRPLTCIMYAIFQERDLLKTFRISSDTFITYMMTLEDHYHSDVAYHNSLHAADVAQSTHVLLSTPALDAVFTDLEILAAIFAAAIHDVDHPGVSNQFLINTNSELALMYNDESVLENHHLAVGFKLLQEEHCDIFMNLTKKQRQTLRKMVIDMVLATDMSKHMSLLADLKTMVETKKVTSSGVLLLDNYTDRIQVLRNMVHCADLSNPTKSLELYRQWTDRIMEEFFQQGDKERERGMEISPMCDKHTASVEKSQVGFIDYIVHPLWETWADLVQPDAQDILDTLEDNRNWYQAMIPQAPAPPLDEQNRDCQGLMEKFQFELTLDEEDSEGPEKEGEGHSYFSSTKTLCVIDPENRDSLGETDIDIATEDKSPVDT

For `O=C1c2c(-c3ccc(Cl)cc3)c3ncccc3n2CC2CCN12` (single isomer, unassigned) [Example 68], the IC50 was 26 nM at Human PDE4A3 (setting [1]), 18.5 nM on Human PDE4B1 (setting [1]), 26 nM on Human PDE4C1 and 538 nM at human PDE4D3 (setting [1]).

As to `O=C1c2c(-c3ccc(Cl)cc3)c3ncccc3n2CC2CCN12` (single isomer, unassigned) [Example 69], the IC50 at Human PDE4A3 (setting [1]) is 8.87 nM; at Human PDE4B1 (setting [1]), 16.3 nM; on Human PDE4C1 it was 24.3 nM; at human PDE4D3 (setting [1]), 689 nM.

Turning to `O=C1c2c(-c3ccc(Cl)cc3)c3ncccc3n2CCN1c1ncccn1` [Example 1, 10-(4-Chlorophenyl)-8-(pyrimidin-2-yl)-7,8-dihydropyrido[2′,3′:4,5]pyrrolo[1,2-a]pyrazin-9(6H)-one], the IC50 was 18.8 nM on Human PDE4A3 (setting [1]), 16.1 nM at Human PDE4B1 (setting [1]), 182 nM on Human PDE4C1 and 1230 nM on human PDE4D3 (setting [1]).

As for `O=C1c2c(-c3ccc(Cl)cc3)c3ncccc3n2CCN1C1CC1` [Example 2, 10-(4-Chlorophenyl)-8-cyclopropyl-7,8-dihydropyrido[2′,3′:4,5]pyrrolo[1,2-a]pyrazin-9(6H)-one], the IC50 on Human PDE4A3 (setting [1]) is less than 0.99 nM; on Human PDE4B1 (setting [1]), less than 0.42 nM; at Human PDE4C1, 4 nM; at human PDE4D3 (setting [1]), 75.3 nM.

For the molecule `N#Cc1ccc(-c2c3n(c4cccnc24)CCN(C2CC2)C3=O)cc1F` [Example 4, 4-(8-Cyclopropyl-9-oxo-6,7,8,9-tetrahydropyrido[2′,3′:4,5]pyrrolo[1,2-a]pyrazin-10-yl)-2-fluorobenzonitrile], the IC50 is 4.66 nM at Human PDE4A3 (setting [1]), less than 0.81 nM at Human PDE4B1 (setting [1]), 17 nM at Human PDE4C1 and 36.3 nM on human PDE4D3 (setting [1]).

As to `O=C1c2c(-c3ccc(Cl)c(F)c3)c3ncncc3n2CCN1C1CC1` [Example 7, 10-(4-Chloro-3-fluorophenyl)-8-cyclopropyl-7,8-dihydropyrazino[1′,2′: 1,5]pyrrolo[3,2-d]pyrimidin-9(6H)-one], the IC50 at Human PDE4A3 (setting [1]) came out at 14.3 nM; at Human PDE4B1 (setting [1]), 2.53 nM; on Human PDE4C1, 71.4 nM; on human PDE4D3 (setting [1]) it was 159 nM.

Take `O=C1c2c(-c3ccc(Cl)c(F)c3)c3nccnc3n2CCN1C1CC1` [Example 8, 10-(4-Chloro-3-fluorophenyl)-8-cyclopropyl-7,8-dihydropyrrolo[1,2-a:4,5-b′]dipyrazin-9(6H)-one]: the IC50 is 1.19 nM at Human PDE4A3 (setting [1]), less than 1.27 nM at Human PDE4B1 (setting [1]), 13.9 nM on Human PDE4C1 and 88.5 nM on human PDE4D3 (setting [1]).

Take `O=C1c2c(-c3ccc(Cl)cc3)c3cccnc3n2CCN1C1CC1` [Example 9, 5-(4-Chlorophenyl)-7-cyclopropyl-8,9-dihydropyrido[3′,2′: 4,5]pyrrolo[1,2-a]pyrazin-6(7H)-one]: the IC50 was 129 nM on Human PDE4A3 (setting [1]), 298 nM on Human PDE4B1 (setting [1]), 127 nM on Human PDE4C1 and 8190 nM on human PDE4D3 (setting [1]).

In the case of `C[C@@H]1Cn2c(c(-c3ccc(Cl)cc3)c3ncccc32)C(=O)N1C1CC1` [Example 10, (7R)-10-(4-Chlorophenyl)-8-cyclopropyl-7-methyl-7,8-dihydropyrido[2′,3′:4,5]pyrrolo[1,2-a]pyrazin-9(6H)-one], the IC50 turned out to be 15.5 nM at Human PDE4A3 (setting [1]), 12.2 nM on Human PDE4B1 (setting [1]), 28.2 nM at Human PDE4C1 and 768 nM at human PDE4D3 (setting [1]).

As for `C[C@H]1Cn2c(c(-c3ccc(Cl)cc3)c3ncccc32)C(=O)N1C1CC1` [Example 11, (7S)-10-(4-Chlorophenyl)-8-cyclopropyl-7-methyl-7,8-dihydropyrido[2′,3′: 4,5]pyrrolo[1,2-a]pyrazin-9(6H)-one], the IC50 on Human PDE4A3 (setting [1]) was less than 0.3 nM; at Human PDE4B1 (setting [1]) it was less than 0.52 nM; at Human PDE4C1, less than 0.57 nM; at human PDE4D3 (setting [1]), 28.7 nM.

In the case of `O=C1c2c(-c3ccc(Cl)cc3)c3ccccc3n2CCN1C1CC1` [Example 12, 10-(4-Chlorophenyl)-2-cyclopropyl-3,4-dihydropyrazino[1,2-a]indol-1(2H)-one], the IC50 at Human PDE4A3 (setting [1]) is 12 nM; on Human PDE4B1 (setting [1]), 19.2 nM; on Human PDE4C1, 23.5 nM; at human PDE4D3 (setting [1]), 3090 nM.

With `Cc1ccc(-c2c3ncccc3n3ccn(C4CC4)c(=O)c23)cc1` [Example 13, 8-Cyclopropyl-10-(4-methylphenyl)pyrido[2′,3′:4,5]pyrrolo[1,2-a]pyrazin-9(8H)-one], the IC50 is 1.86 nM on Human PDE4A3 (setting [1]), 2.7 nM at Human PDE4B1 (setting [1]), 6.59 nM on Human PDE4C1 and 182 nM at human PDE4D3 (setting [1]).

On to `Cc1cc(C#N)ccc1-c1c2n(c3scnc13)CCN(C1CC1)C2=O` [Example 14, 4-(7-Cyclopropyl-8-oxo-5,6,7,8-tetrahydro[1,3]thiazolo[4′,5′:4,5]pyrrolo[1,2-a]pyrazin-9-yl)-3-methylbenzonitrile], for which the IC50 at Human PDE4A3 (setting [1]) is 18.5 nM; at Human PDE4B1 (setting [1]), 19.3 nM; on Human PDE4C1 it was 79 nM; on human PDE4D3 (setting [1]), 2090 nM.

With `Cn1nc(-c2c3n(c4cccnc24)CCN(C2CC2)C3=O)nc1C(F)F` [Example 90, 8-Cyclopropyl-10-(5-(difluoromethyl)-1-methyl-1H-1,2,4-triazol-3-yl)-7,8-dihydropyrido[2′,3′:4,5]pyrrolo[1,2-a]pyrazin-9(6H)-one], the IC50 on Human PDE4A3 (setting [2]), at Human PDE4B1 (setting [2]) and at human PDE4D3 (setting [2]) was more than 30000 nM each time.
